In ChEMBL document CHEMBL1629671, “Activity of posaconazole and other antifungal agents against Mucorales strains identified by sequencing of internal transcribed spacers” (2009) one finds MIC data, which are given here for six molecules.

Values after ≈ are worked out from the molar mass of the structure shown.

What all share (format): functional
For assay [1], the system named is Rhizopus arrhizus. The assay is described as follows: Antifungal activity against Rhizopus oryzae after 48 hrs by microdilution method. For orientation: Dilution methods test growth across graded concentrations, often in twofold steps.
The subject of assay [2] is Cunninghamella bertholletiae. Description: Antifungal activity against Cunninghamella bertholletiae after 24 hrs by microdilution method.
For assay [3], the system named is Mucor circinelloides. The assay is described as follows: Antifungal activity against Mucor circinelloides after 48 hrs by microdilution method.
The nature of assay [4]: Antifungal activity against Rhizomucor variabilis after 24 hrs by microdilution method.
Assay [5] concerns Rhizopus arrhizus. The assay is described as follows: Antifungal activity against Rhizopus oryzae after 24 hrs by microdilution method.
Assay [6] in a line: Antifungal activity against Rhizomucor variabilis after 48 hrs by microdilution method.
Assay [7] has as its system Mucor circinelloides. Description: Antifungal activity against Mucor circinelloides after 24 hrs by microdilution method.
In assay [8] the test system is Cunninghamella. Description: Antifungal activity against Cunninghamella spp. after 24 hrs by microdilution method.
Assay [9] relates to Cunninghamella bertholletiae. Description: Antifungal activity against Cunninghamella bertholletiae after 48 hrs by microdilution method.
The nature of assay [10]: Antifungal activity against Rhizopus microsporus after 24 hrs by microdilution method.
Assay [11] concerns Actinomucor. Description: Antifungal activity against Actinomucor spp. after 48 hrs by microdilution method.
Assay [12] is described as follows: Antifungal activity against Rhizopus microsporus after 48 hrs by microdilution method.
Assay [13] relates to Apophysomyces. Description: Antifungal activity against Apophysomyces spp. after 48 hrs by microdilution method.
Assay [14] concerns Lichtheimia corymbifera. Description: Antifungal activity against Mycocladus corymbifer after 24 hrs by microdilution method.
Assay [15] relates to Lichtheimia corymbifera. Description: Antifungal activity against Mycocladus corymbifer after 48 hrs by microdilution method.
Assay [16] can be described thus: Antifungal activity against Rhizomucor pusillus after 24 hrs by microdilution method.
Assay [17] relates to Apophysomyces. The assay is described as follows: Antifungal activity against Apophysomyces spp. after 24 hrs by microdilution method.
Assay [18] can be described thus: Antifungal activity against Rhizomucor pusillus after 48 hrs by microdilution method.
The test system of assay [19] is Actinomucor. The assay is described as follows: Antifungal activity against Actinomucor spp. after 24 hrs by microdilution method.
Assay [20] relates to Cunninghamella. The assay is described as follows: Antifungal activity against Cunninghamella spp. after 48 hrs by microdilution method.

What is called MIC is the lowest concentration found to suppress growth. Take `CN(C/C=C/C#CC(C)(C)C)Cc1cccc2ccccc12` [TERBINAFINE]: the minimal inhibitory concentration (MIC) against Rhizopus arrhizus [1] was found to be 32 µg/mL (≈ 110 µM); in assay [2] it was 0.4 µg/mL (≈ 1.37 µM); against Mucor circinelloides [3], 32 µg/mL (≈ 110 µM); in [4], 32 µg/mL (≈ 110 µM); against Rhizopus arrhizus [5], 24.2 µg/mL (≈ 83.2 µM); in assay [6] it was 32 µg/mL (≈ 110 µM). Also, the MIC came out at 21.5 µg/mL (≈ 73.9 µM) against Mucor circinelloides [7]; 0.13 µg/mL (≈ 0.446 µM) in the assay on Cunninghamella [8]; 0.49 µg/mL (≈ 1.68 µM) in assay [9]; 0.71 µg/mL (≈ 2.44 µM) in assay [10]; 0.36 µg/mL (≈ 1.24 µM) against Actinomucor [11]; 1.41 µg/mL (≈ 4.84 µM) in [12]. The minimum inhibitory concentration (MIC) with Apophysomyces [13] turned out to be 2 µg/mL (≈ 6.86 µM); in the assay with Lichtheimia corymbifera [14], 0.5 µg/mL (≈ 1.72 µM); against Lichtheimia corymbifera [15], 1 µg/mL (≈ 3.43 µM); in [16], 0.22 µg/mL (≈ 0.755 µM); with Apophysomyces [17], 2 µg/mL (≈ 6.86 µM); in assay [18] it was 0.33 µg/mL (≈ 1.13 µM). Moreover, the minimal inhibitory concentration (MIC) with Actinomucor [19] worked out at 0.125 µg/mL (≈ 0.429 µM); in the assay on Cunninghamella [20] it was 0.18 µg/mL (≈ 0.618 µM).
As for `C[C@@H](c1nc(-c2ccc(C#N)cc2)cs1)[C@](O)(Cn1cncn1)c1ccc(F)cc1F` [RAVUCONAZOLE], the MIC amounted to 1.32 µg/mL (≈ 3.02 µM) in the assay on Rhizopus arrhizus [1]; 8 µg/mL (≈ 18.3 µM) in assay [2]; 13.1 µg/mL (≈ 30 µM) against Mucor circinelloides [3]; 8 µg/mL (≈ 18.3 µM) in assay [4]; 1 µg/mL (≈ 2.29 µM) in the assay on Rhizopus arrhizus [5]; 16 µg/mL (≈ 36.6 µM) in assay [6]. Further, the MIC stood at 11.9 µg/mL (≈ 27.2 µM) against Mucor circinelloides [7]; 1 µg/mL (≈ 2.29 µM) in the assay on Cunninghamella [8]; 12.1 µg/mL (≈ 27.7 µM) in assay [9]; 0.89 µg/mL (≈ 2.03 µM) in [10]; 0.5 µg/mL (≈ 1.14 µM) against Actinomucor [11]; 1.78 µg/mL (≈ 4.07 µM) in assay [12]. Moreover, the minimal inhibitory concentration (MIC) against Apophysomyces [13] stood at 4 µg/mL (≈ 9.14 µM); against Lichtheimia corymbifera [14], 1.22 µg/mL (≈ 2.79 µM); against Lichtheimia corymbifera [15], 2 µg/mL (≈ 4.57 µM); in [16], 0.66 µg/mL (≈ 1.51 µM); in the assay with Apophysomyces [17], 2 µg/mL (≈ 4.57 µM); in [18], 0.87 µg/mL (≈ 1.99 µM). Further, the figures for the minimal inhibitory concentration (MIC) in the assay on Actinomucor [19] and in the assay with Cunninghamella [20] were 0.25 µg/mL (≈ 0.571 µM) and 8 µg/mL (≈ 18.3 µM), respectively.
With `C[C@@H](c1ncncc1F)[C@](O)(Cn1cncn1)c1ccc(F)cc1F` [VORICONAZOLE], the minimal inhibitory concentration (MIC) in the assay on Rhizopus arrhizus [1] is 16 µg/mL (≈ 45.8 µM); in assay [2], 16 µg/mL (≈ 45.8 µM); against Mucor circinelloides [3], 16 µg/mL (≈ 45.8 µM); in assay [4], 16 µg/mL (≈ 45.8 µM); against Rhizopus arrhizus [5], 12.1 µg/mL (≈ 34.7 µM); in assay [6], 16 µg/mL (≈ 45.8 µM). In addition, the MIC against Mucor circinelloides [7] came out at 16 µg/mL (≈ 45.8 µM); in the assay on Cunninghamella [8] it was 16 µg/mL (≈ 45.8 µM); in assay [9] it was 16 µg/mL (≈ 45.8 µM); in [10] it was 8 µg/mL (≈ 22.9 µM); with Actinomucor [11], 22.6 µg/mL (≈ 64.8 µM); in assay [12] it was 8.98 µg/mL (≈ 25.7 µM). In addition, the minimal inhibitory concentration (MIC) was 16 µg/mL (≈ 45.8 µM) in the assay with Apophysomyces [13]; 14.5 µg/mL (≈ 41.5 µM) against Lichtheimia corymbifera [14]; 16 µg/mL (≈ 45.8 µM) in the assay with Lichtheimia corymbifera [15]; 5.28 µg/mL (≈ 15.1 µM) in assay [16]; 16 µg/mL (≈ 45.8 µM) against Apophysomyces [17]; 6.06 µg/mL (≈ 17.3 µM) in [18]. The minimum inhibitory concentration (MIC) against Actinomucor [19] and against Cunninghamella [20] was 16 µg/mL (≈ 45.8 µM) throughout.
`CCC(C)n1ncn(-c2ccc(N3CCN(c4ccc(OCC5COC(Cn6cncn6)(c6ccc(Cl)cc6Cl)O5)cc4)CC3)cc2)c1=O` (stereo not given) [ITRACONAZOLE]: the MIC in the assay on Rhizopus arrhizus [1] was 6.96 µg/mL (≈ 9.86 µM); in [2], 3.17 µg/mL (≈ 4.49 µM); against Mucor circinelloides [3] it was 16 µg/mL (≈ 22.7 µM); in [4], 16 µg/mL (≈ 22.7 µM); against Rhizopus arrhizus [5], 4 µg/mL (≈ 5.67 µM); in assay [6], 16 µg/mL (≈ 22.7 µM). For the same molecule, the MIC was 11.9 µg/mL (≈ 16.8 µM) in the assay with Mucor circinelloides [7]; 0.5 µg/mL (≈ 0.709 µM) against Cunninghamella [8]; 10.1 µg/mL (≈ 14.3 µM) in [9]; 1.59 µg/mL (≈ 2.25 µM) in assay [10]; 2 µg/mL (≈ 2.83 µM) in the assay on Actinomucor [11]; 3.56 µg/mL (≈ 5.05 µM) in assay [12]. Besides, the MIC with Apophysomyces [13] worked out at 16 µg/mL (≈ 22.7 µM); with Lichtheimia corymbifera [14] it was 0.68 µg/mL (≈ 0.964 µM); against Lichtheimia corymbifera [15], 1.35 µg/mL (≈ 1.91 µM); in assay [16], 0.29 µg/mL (≈ 0.411 µM); against Apophysomyces [17], 16 µg/mL (≈ 22.7 µM); in assay [18] it was 0.44 µg/mL (≈ 0.624 µM). Also, the MIC in the assay with Actinomucor [19] came to 2 µg/mL (≈ 2.83 µM); with Cunninghamella [20], 4 µg/mL (≈ 5.67 µM).
In the case of `C[C@@H]1[C@H](O)[C@@H](C)/C=C/C=C/C=C/C=C/C=C/C=C/C=C/[C@H](O[C@@H]2O[C@H](C)[C@@H](O)[C@H](N)[C@@H]2O)C[C@@H]2O[C@](O)(C[C@@H](O)C[C@@H](O)[C@H](O)CC[C@@H](O)C[C@@H](O)CC(=O)O[C@H]1C)C[C@H](O)[C@H]2C(=O)O` [AMPHOTERICIN B], the minimum inhibitory concentration (MIC) with Rhizopus arrhizus [1] was found to be 1 µg/mL (≈ 1.08 µM); in assay [2], 7.13 µg/mL (≈ 7.72 µM); with Mucor circinelloides [3], 0.15 µg/mL (≈ 0.162 µM); in [4] it was 0.03 µg/mL (≈ 0.0325 µM); against Rhizopus arrhizus [5], 0.29 µg/mL (≈ 0.314 µM); in assay [6], 0.09 µg/mL (≈ 0.0974 µM). The MIC in the assay with Mucor circinelloides [7] is 0.05 µg/mL (≈ 0.0541 µM); against Cunninghamella [8], 2.83 µg/mL (≈ 3.06 µM); in assay [9], 7.13 µg/mL (≈ 7.72 µM); in [10] it was 0.45 µg/mL (≈ 0.487 µM); against Actinomucor [11], 1.41 µg/mL (≈ 1.53 µM); in assay [12], 0.89 µg/mL (≈ 0.963 µM). For the same molecule, the MIC worked out at 8 µg/mL (≈ 8.66 µM) in the assay on Apophysomyces [13]; 0.08 µg/mL (≈ 0.0866 µM) in the assay on Lichtheimia corymbifera [14]; 0.14 µg/mL (≈ 0.152 µM) in the assay on Lichtheimia corymbifera [15]; 0.05 µg/mL (≈ 0.0541 µM) in assay [16]; 2 µg/mL (≈ 2.16 µM) with Apophysomyces [17]; 0.1 µg/mL (≈ 0.108 µM) in assay [18]. For the same molecule, the MIC against Actinomucor [19] came out at 1 µg/mL (≈ 1.08 µM); in the assay with Cunninghamella [20], 4 µg/mL (≈ 4.33 µM).
For the molecule `CC[C@@H]([C@H](C)O)n1ncn(-c2ccc(N3CCN(c4ccc(OC[C@@H]5CO[C@@](Cn6cncn6)(c6ccc(F)cc6F)C5)cc4)CC3)cc2)c1=O` [POSACONAZOLE], the MIC against Rhizopus arrhizus [1] worked out at 2 µg/mL (≈ 2.85 µM); in [2], 2.3 µg/mL (≈ 3.28 µM); against Mucor circinelloides [3], 2.69 µg/mL (≈ 3.84 µM); in assay [4] it was 1.41 µg/mL (≈ 2.01 µM); in the assay with Rhizopus arrhizus [5] it was 1.15 µg/mL (≈ 1.64 µM); in assay [6], 16 µg/mL (≈ 22.8 µM). Also, the MIC in the assay with Mucor circinelloides [7] came to 1.49 µg/mL (≈ 2.13 µM); in the assay on Cunninghamella [8], 0.25 µg/mL (≈ 0.357 µM); in [9], 4.59 µg/mL (≈ 6.55 µM); in [10], 0.79 µg/mL (≈ 1.13 µM); against Actinomucor [11], 0.125 µg/mL (≈ 0.178 µM); in assay [12], 3.17 µg/mL (≈ 4.52 µM). Also, the minimal inhibitory concentration (MIC) was determined as 1 µg/mL (≈ 1.43 µM) in the assay on Apophysomyces [13]; 0.41 µg/mL (≈ 0.585 µM) in the assay on Lichtheimia corymbifera [14]; 0.67 µg/mL (≈ 0.956 µM) against Lichtheimia corymbifera [15]; 0.16 µg/mL (≈ 0.228 µM) in [16]; 0.5 µg/mL (≈ 0.713 µM) in the assay with Apophysomyces [17]; 0.28 µg/mL (≈ 0.4 µM) in assay [18]. The results for the MIC against Actinomucor [19] and in the assay with Cunninghamella [20] were 0.06 µg/mL (≈ 0.0856 µM) and 4 µg/mL (≈ 5.71 µM), respectively.
